Measurements from US20030108462A1, “Method of extracting contaminants from solid matter” (priority 2001, published 2003).
“And” between values parts separate entries of the source, which are not always exact repeats. Equal values may be shown once.

Key:
[1] = at 25° C.; cited from earlier work
[2] = Chelating-agent leaching of comminuted CCA treated wood, arsenic; conditions: weight basis, before being adjusted for moisture content
Description: (§1) 32 grams of the comminuted treated wood was used to represent 1 mole of the contaminants, and was reacted with 1000 ml of 0.1 mole ethylenediamine-N,N,N′,N′-tetraacetic acid at a temperature of 70° C. for a period of 6 hours. The sample was agitated and allowed to settle periodically to thoroughly mix the wood and the solution, as well as to facilitate leaching. After the last settling period, the mixture stratified into a green colored supernatant which contained the chelated CCA components in soluble form at the top, and clean looking sawdust at the bottom of the reaction container.
(§2) Upon completion of reaction, the supernatant was decanted and retained. The solid section was allowed to drain freely for 15 minutes, after which 500 ml of fresh water was added and the mixture was periodically mixed and allowed to settle for a period of 30 minutes. Similarly, the mixture stratified into a light green solution and cleaner looking saw dust. The liquid was decanted and added to the previously decanted liquid. The settled solids were wrapped in a 250μ filter paper and subjected to a weight of 6 pounds per square inch and allowed to drain. Upon completion, the drained liquid was added to the previously decanted liquids and sent for laboratory analysis. The retained solids were oven dried and analyzed for the target contaminants.
(§3) 100 grams of the comminuted treated wood was used to represent 1 mole of the contaminants and reacted with 1000 mL of 0.1 mole EDTA disodium solution at 30° C. for 30 hours. […]
(§4) Upon completion of reaction, the supernatant was decanted and retained. […] The retained solids were oven dried and analyzed for the target contaminants. […]
(§5) Upon completion of reaction, the supernatant was decanted and retained The solid section was allowed to drain freely for 15 minutes, after which 500 ml of fresh water with a known quality was added and the mixture was periodically mixed and allowed to settle for a period of 30 minutes. […] The retained solids were oven dried and analyzed for the target contaminants.

[3] = Chelating-agent leaching of comminuted CCA treated wood, chromium; conditions: weight basis, before being adjusted for moisture content
Description: as §1, §2, §3, §4, §5

[4] = Chelating-agent leaching of comminuted CCA treated wood, copper; conditions: weight basis, before being adjusted for moisture content
Description: as §1, §2, §3, §4, §5

SMILES: O=C(O)CN(CCN(CC(=O)O)CC(=O)O)CCN(CC(=O)O)CC(=O)O [Diethylenetriamine-N,N,N′,N″,N′-pentaacetic Acid]
- Solubility [1]: 0.46 g/l00 mL at 25 °C

SMILES: O=C(O)CN(CCN(CC(=O)O)CC(=O)O)CC(=O)O [EXAMPLE 1, ethylenediamine-N,N,N′,N′-tetraacetic acid]
- Percent Removal, Arsenic [2]: 93.28%
- Percent Removal, Chromium [3]: 84.47%
- Percent Removal, Copper [4]: 95.54%

SMILES: O=C([O-])CN(CCN(CC(=O)[O-])CC(=O)O)CC(=O)O.[Na+].[Na+] [EXAMPLE 2, EDTA disodium]
- Percent Removal, Arsenic [2]: 96.36%
- Percent Removal, Chromium [3]: 90.86%
- Percent Removal, Copper [4]: 98.35%

SMILES: O=C(O)CN(CCN(CC(=O)O)CC(=O)O)CC(=O)O [EXAMPLE 3, EDTA Free Acid]
- Percent Removal, Arsenic [2]: 96.09%
- Percent Removal, Chromium [3]: 90.09% and 90.89%
- Percent Removal, Copper [4]: 99.75%
